Experiments:
Phytophthora infestans = assay type: in vivo; conditions: 100 ppm spray plus root drench (approximately 40 ppm a.i/dry soil), one or two days before inoculation
Puccinia recondita = test: Foliar fungal disease control, Puccinia recondita (wheat); assay type: in vivo; conditions: 100 ppm spray plus root drench (approximately 40 ppm a.i/dry soil), one or two days before inoculation
Tomato = test: Whole plant screen for plant growth regulator activity, tomato (TO); assay type: in vivo, Tomato (Ailsa Craig); conditions: 4000 ppm (4 kg/ha), visual score after 2-6 weeks
Summary of the method: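 Plant growth regulation scored visually 2–6 weeks post-spray, relative to formulation-blank controls, with growth at 25/22 °C day/night under 16 h light. Treatment: 4000 ppm (4 kg/ha, 1000 l/ha volume) track-sprayed onto Ailsa Craig tomato at the 2–2½ leaf stage, grown singly in 3-inch peat pots.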

Cercospora arachidicola = test: Foliar fungal disease control, Cercospora arachidicola (peanut); assay type: in vivo; conditions: 100 ppm spray plus root drench (approximately 40 ppm a.i/dry soil), one or two days before inoculation
Rice [1] = test: Intermediate Retardant Test, rice; assay type: in vivo, Rice (Ishikari); conditions: Oryza sativa, 672 h, overall spray, approximately 28 days, Table VI, read-out: Percentage Reduction in Height of Rice (Compared to formulation blank)
Summary of the method: (§1)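 Overall spray at 500 and 2000 ppm (0.5 and 2 kg/ha^-1 at 1000 l/ha^-1); for apples, a 2000 ppm foliar-only spray was also compared with a 2000 ppm root drench. Rice grew in flooded 4" paddy pots, barley and apples in 4" pots. About 28 days after treatment, height (to top-most ligule, or to apex for apples) was recorded as % reduction versus formulation blank.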

Wheat = test: Whole plant screen for plant growth regulator activity, wheat (WW); assay type: in vivo, Wheat (Timmo); conditions: for G = Greening effect / I = Interligular or internodal length reduction / R = Retardation / T = Tillering or side shooting: WW, 4000 ppm (4 kg/ha), visual score after 2-6 weeks; for T = Tillering or side shooting: * = decrease in tillering
Summary of the method: (§2)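 Visual scoring of morphological effects after 2-6 weeks in glasshouse, compared with formulation-blank controls. Spray application was 4000 ppm, equal to 4 kg/ha at 1000 l/ha field volume, at set leaf stages. Growth at 25° C./22° C. day/night with 16 hour photoperiod; temperate cereals wheat and barley at 16° C./13° C.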

Apples = test: Intermediate Retardant Test, apples, foliar spray compared with root drench; assay type: in vivo, Apples (Red Delicious); conditions: 672 h, approximately 28 days, Table IX, read-out: Percentage Reduction in Height of Apples (Compared to formulation blank)
Summary of the method: as §1

Apple [2] = test: Whole plant screen for plant growth regulator activity, apple (AP); assay type: in vivo, Apple (Red Delicious); conditions: 4000 ppm (4 kg/ha), visual score after 2-6 weeks
Summary of the method: as §2

Maize = test: Whole plant screen for plant growth regulator activity, maize (MZ); assay type: in vivo, Maize (Earliking); conditions: 4000 ppm (4 kg/ha), visual score after 2-6 weeks
Protocol: Compounds 1 to 3 in Table 1 were tested for plant growth regulator activity against five species for various growth effects relevant to plant growth regulation.
The plant species used in this screen are presented in Table II with the leaf stage at which they were sprayed. Each chemical was applied at 4000 ppm (4 kg/ha in a 1000 l/ha field volume) using a tracksprayer and a SS8004E (Teejet) nozzle.
After spray the plants were grown in a glasshouse with 25° C. day/22° C. night temperatures and supplementary lighting was supplied when necessary (from mercury vapour lamps), to provide a 16 hour photoperiod. The exception to this were the temperate cereals, wheat and barley which were grown in 16° C. day/13° C. night temperatures.
After 2-6 weeks in the glasshouse, depending on the time of year, the plants were visually assessed for morphological characteristics. Formulation blanks were used as controls to assess the plants. […]

Erysiphe graminis = test: Foliar fungal disease control, Erysiphe graminis (barley); assay type: in vivo; conditions: 100 ppm spray plus root drench (approximately 40 ppm a.i/dry soil); inoculated 24 hours before treatment
Rice [3] = test: Whole plant screen for plant growth regulator activity, rice (RC); assay type: in vivo, Rice (Ishikari); conditions: 4000 ppm (4 kg/ha), visual score after 2-6 weeks
Summary of the method: as §2

Spring Barley = test: Intermediate Retardant Test, spring barley; assay type: in vivo, Spring Barley (Atem/kym); conditions: Hordeum vulgare, 672 h, overall spray, approximately 28 days, Table VII, read-out: Percentage Reduction in Height of Spring Barley (Compared to formulation blank)
Summary of the method: as §1

Pyricularia oryzae = assay type: in vivo; conditions: 100 ppm spray plus root drench (approximately 40 ppm a.i/dry soil), one or two days before inoculation
Barley [4] = test: Whole plant screen for plant growth regulator activity, barley (BR); assay type: in vivo, Barley (Atem); conditions: BR, 4000 ppm (4 kg/ha), visual score after 2-6 weeks; for T = Tillering or side shooting: * = decrease in tillering
Summary of the method: as §2

Plasmopara viticola = test: Foliar fungal disease control, Plasmopara viticola (vine); assay type: in vivo; conditions: 100 ppm spray plus root drench (approximately 40 ppm a.i/dry soil), one or two days before inoculation
Apple [5] = test: Modified Intermediate Retardant Test, apples; assay type: in vivo, Apple (Red Delicious); conditions: 2000 g/ha, overall spray, height to apex 21 days after treatment
Excerpt: (§3) The general Intermediate Retardant Test described in Example 62 was modified by the addition of Sunflowers (SR) and the variety and growth stages at spray are outlined in Table XIII. Apart from the changes indicated, growing conditions for barley, rice and apples were as in Example 62 and growing conditions for Sunflower were as for apples. Test compounds were applied to barley, rice and apples as whole plant (overall) sprays at a rate of 2000 g/ha. Test compounds were applied to sunflowers separately as a foliar only spray at a rate of 2000 g/ha and as a root drench at a rate of 2000 g/ha.
(§4) Barley and rice were assessed for height to topmost ligule 21 days after treatment; apples were assessed for height to apex at 21 days after treatment; and sunflowers were assessed for height to apex at 14 days after treatment. The results are expressed as percentage reduction in height compared with the formulation blank in Table XIV.

Barley [6] = test: Modified Intermediate Retardant Test, barley; assay type: in vivo, Barley (Atem); conditions: 2000 g/ha, overall spray, height to topmost ligule 21 days after treatment
Excerpt: as §3, §4

Rice [7] = test: Modified Intermediate Retardant Test, rice; assay type: in vivo, Rice (Ishikari); conditions: 2000 g/ha, overall spray, height to topmost ligule 21 days after treatment
Excerpt: as §3, §4

Sunflower = test: Modified Intermediate Retardant Test, sunflower; assay type: in vivo; conditions: 2000 g/ha, height to apex 14 days after treatment; for […] IN HEIGHT, SR (Foliar): foliar only spray; for […] IN HEIGHT, SR (Root): root drench
Excerpt: as §3, §4

SMILES | disease control, PH[…] (TOMATO) (Phytophthora infestans) | disease control, PUCCINIA RECONDITA (WHEAT) (Puccinia recondita) | G = Greening effect (Tomato) | I = Interligular or internodal length reduction (Tomato) | R = Retardation (Tomato) | disease control, CERCOSPORA ARACHIDICOLA (PEANUT) (Cercospora arachidicola) | G = Greening effect (Wheat) | I = Interligular or internodal length reduction (Wheat) | R = Retardation (Wheat) | T = Tillering or side shooting (Wheat) | disease control, ERYSIPHE GRAMINIS (BARLEY) (Erysiphe graminis) | G = Greening effect (Barley [4]) | I = Interligular or internodal length reduction (Barley [4]) | R = Retardation (Barley [4]) | T = Tillering or side shooting (Barley [4]) | […] IN HEIGHT, AP (Apple [5]) [%] | […] IN HEIGHT, BR (Barley [6]) [%] | […] IN HEIGHT, RC (Rice [7]) [%] | […] IN HEIGHT, SR (Foliar) (Sunflower) [%] | […] IN HEIGHT, SR (Root) (Sunflower) [%] | also measured
CC(C)CCCC(O)(c1cncnc1)C(C)C (stereo not shown) [Compound 7, 2-Methyl-1-(4-methylpentyl)-1-(pyrimidin-5-yl)propan-1-ol] | 0 (60-100% of disease on untreated plants) | 0 (60-100% of disease on untreated plants) | 2 (31-60%) | 3 (61-100%) | 3 (61-100%) | 0 (60-100% of disease on untreated plants) | 2 (31-60%) | 3 (61-100%) | 3 (61-100%) | 3 (61-100%) | 4 | 2 (31-60%) | 2 (31-60%) | 2 (31-60%) | 1 (10-30%) | – | – | – | – | – | Percent reduction in rice height vs formulation blank at 500 ppm (Rice [1]; 500 ppm): 31%; Percent reduction in rice height vs formulation blank at 2000 ppm (Rice [1]; 2000 ppm): 45%; percent reduction in plant height at 2000 ppm (Apples; 2000 ppm (Foliar)): 12%; percent reduction in plant height at 2000 µg/mL (Apples; soil, 2000 pmm (Root), root drench): 45%; G = Greening effect (Apple [2]): 1 (10-30%); I = Interligular or internodal length reduction (Apple [2]): 2 (31-60%); R = Retardation (Apple [2]): 3 (61-100%); G = Greening effect (Maize): 1 (10-30%); I = Interligular or internodal length reduction (Maize): 2 (31-60%); R = Retardation (Maize): 2 (31-60%); G = Greening effect (Rice [3]): 1 (10-30%); I = Interligular or internodal length reduction (Rice [3]): 2 (31-60%); R = Retardation (Rice [3]): 2 (31-60%); percent reduction in plant height at 500 ppm (Spring Barley; 500 ppm): 23%; percent reduction in plant height at 2000 ppm (Spring Barley; 2000 ppm): 47%; disease control, P[…] (RICE) (Pyricularia oryzae): 0 (60-100% of disease on untreated plants)
CC(C)(C)/C=C/C(O)(c1cncnc1)C1(C)CC1 (stereo not shown) [Compound 55] | 0 (60-100% of disease on untreated plants) | 4 | 2 (31-60%) | 2 (31-60%) | 2 (31-60%) | 4 | 1 (10-30%) | 2 (31-60%) | 2 (31-60%) | 1 (10-30%) | 4 | – | – | – | 3 (61-100%) | – | – | – | – | – | disease control, PLASMOPARA VITICOLA (VINE) (Plasmopara viticola): 0 (60-100% of disease on untreated plants); disease control, P[…] (RICE) (Pyricularia oryzae): 0 (60-100% of disease on untreated plants)
CCCCC#CC(O)(c1cncnc1)C(C)(C)C (stereo not shown) [Compound 31] | – | – | 2 (31-60%) | 3 (61-100%) | 3 (61-100%) | – | 3 (61-100%) | 3 (61-100%) | – | 1 (10-30%) | – | 3 (61-100%) | 3 (61-100%) | 3 (61-100%) | 1 (10-30%) | 50 | 69 | 77 | 19 | 51 | A = Apical damage (Wheat; 4000 ppm): 1 (10-30%)
CCCCCC#CC(O)(c1cncnc1)C(C)(C)C (stereo not shown) [Compound 32] | – | – | 2 (31-60%) | 1 (10-30%) | 2 (31-60%) | – | 1 (10-30%) | 3 (61-100%) | 2 (31-60%) | – | – | 2 (31-60%) | 3 (61-100%) | 3 (61-100%) | 1 (10-30%) | 30 | 17 | 46 | 13 | 37 | –
CCCCCCC#CC(O)(c1cncnc1)C(C)C (stereo not shown) [Compound 24] | – | – | 2 (31-60%) | – | 1 (10-30%) | – | 2 (31-60%) | – | 1 (10-30%) | – | – | – | 2 (31-60%) | 2 (31-60%) | 2* | 37 | 6 | 17 | 0 | 3 | –

From patent US4875922A, “Pyrimidine derivatives” (Imperial Chemical Industries PLC, priority 1986, dated 1989)
